Literature values as cited in patent US11278572B2, “Reducing CXCR4 expression and/or function to enhance engraftment of hematopoietic stem cells” (THE UNITED STATES OF AMERICA, as represented by the …, priority 2014, dated 2022).

Tests used:
[1] = tested on: HPV; settings: WHIM patients
[2] = tested on: CXCR4; settings: WHIM patients, small studies

SMILES | effect on cutaneous and anogenital HPV disease [1] | effect on panleukopenia and WHIM syndrome [2]
CC(C)Cn1cnc2c(N)nc3ccccc3c21 [imiquimod] | ineffective | –
c1cc(CN2CCCNCCNCCCNCC2)ccc1CN1CCCNCCNCCCNCC1 [Plerixafor, plerixafor] | – | successful at reversing the panleukopenia and treating WHIM syndrome
